Non-standard residues stand in square brackets, D forms with d. No end group written: not given here.
What was measured:
[1] = system: SOD1 protein aggregates (EGFP-SOD1 G93A); test: Western blot of SOD1 protein aggregates in transfected HEK293T cells treated with bafilomycin; assay type: cell-based; conditions: 100 nM bafilomycin alone vs control
Method: FIG. 2A is the results of a western blot analysis of SOD1 protein expression levels of protein samples obtained 18 h after treatment of HEK293T cells transfected to express SOD1 with either 100 nM bafilomycin alone or in combination with 30 μM of some peptides according to one embodiment of the present invention, to investigate the degradation of SOD1 protein aggregates by treatment with some peptides (ZC303, ZC304, ZC309, ZC311) according to one embodiment of the present invention. FIG. 2B is a graph showing the results of quantification of the relative expression. In FIG. 2B, * indicates a significant difference from the treatment with bafilomycin alone (* p<0.05).
(§1) The present inventors conducted an Western blot analysis to investigate whether some of the peptides (ZC303, ZC304, ZC309, ZC311) comprising the amino acid sequences designated as SEQ ID NO: 1 to 15 could resolve SOD1 aggregates that formed after transient transfection of SOD1 protein into HEK293T cell lines. Specifically, the present inventors transiently transfected EGFP-SOD1 G93A DNA into the HEK293T cell line using Lipofectamine 2000. […] The obtained cell lysate was subjected to protein quantification using BCA protein assay kit (Pierce Biotechnology, USA). […]

[2] = system: mutant huntingtin protein aggregates (GFP-mHttQ74); test: Western blot of mutant huntingtin protein aggregates in transfected HEK293T cells treated with bafilomycin; assay type: cell-based; conditions: 100 nM bafilomycin alone vs control
Method: FIG. 5 is the results of a Western blot analysis of mutant huntingtin protein expression levels of protein samples obtained 18 h after treatment of HEK293T cells transfected to express mutant huntingtin protein with either 100 nM bafilomycin alone or in combination with 30 μM of some peptides according to one embodiment of the present invention, to investigate the degradation of mutant huntingtin protein aggregates by treatment with some peptides (ZC303, ZC304, ZC309, ZC311) according to one embodiment of the present invention.
as §1, with “2000. After transfection, the cell lines were incubated in a cell incubator at 37° C., 5% CO2 for 30 h and the culture medium was replaced with Minimum Essential Medium (MEM, Gibco, USA). After a 30 min pre-treatment with 100 nM bafilomycin, 30 μM of peptide was added and incubated for 18 h of post-treatment.” for “2000.”

[3] = system: H4 cell lines expressing GFP-tagged LC3 (GL-H4); test: Autophagic flow blocked by Bafilomycin A-1: LC3-GFP puncta by fluorescence microscopy; assay type: cell-based; conditions: 100 nM bafilomycin alone, GL-H4 cells
Method: FIGS. 1A and 1B are a series of fluorescence micrographs showing that autophagic flow blocked by Bafilomycin A-1 is restored by the peptides according to one embodiment of the present invention, wherein an H4 cell line (GL-H4) stably overexpressing GFP-LC3 protein was treated with various peptides according to one embodiment of the present invention at a concentration of 20 μM in combination with Bafilomycin, whose LC3-GFP spots were photographed after 12 hours. FIGS. 1C and 1D are graphs showing quantification of the fluorescence intensity of LC3-GFP spots 12 hours after the treatment of the GL-H4 cell line with the peptides according to one embodiment of the present invention in combination with bafilomycin at a concentration of 20 μM. […]
To investigate the effect of the peptides comprising the amino acid sequences designated as SEQ ID NOs: 1 to 15 on autophagic flow, the present inventors treated H4 cell lines expressing GFP-tagged LC3 (GL-H4) with MEM and then used the above peptides (20 μM) and the autophagy inhibitor Bafilomycin A-1, Baf A1, 100 nM) to inhibit autophagy. Later, the effect of the peptides according to one embodiment of the present invention was investigated by fluorescence microscopy analysis. […]

[4] = system: mutant tau protein aggregates (EGFP-Tau P301L); test: Western blot of mutant tau protein aggregates in transfected HEK293T cells treated with bafilomycin; assay type: cell-based; conditions: 100 nM bafilomycin alone vs controls
[5] = system: α-synuclein protein aggregates (EGFP-a-synuclein A53T); test: Western blot of α-synuclein protein aggregates in transfected HEK293T cells treated with bafilomycin; assay type: cell-based; conditions: 100 nM bafilomycin alone vs control
Method: FIG. 4A is the results of a western blot analysis of a-synuclein expression levels of protein samples obtained 18 h after treatment of HEK293T cells transfected to express a-synuclein protein with either 100 nM bafilomycin alone or in combination with 30 μM of some peptides according to one embodiment of the present invention, to investigate the degradation of a-synuclein protein aggregates by treatment with some peptides (ZC303, ZC304, ZC309, ZC311) according to one embodiment of the present invention.
as §1, with “2000. After transfection, the cell lines were incubated in a cell incubator at 37° C., 5% CO2 for 30 h and the culture medium was replaced with Minimum Essential Medium (MEM, Gibco, USA). After a 30 min pre-treatment with 100 nM bafilomycin, 30 μM of peptide was added and incubated for 18 h of post-treatment.” for “2000.”

[6] = system: P-Tau S214, P-Tau T205, unphosphorylated tau, p62, LC3, β-amyloid (APP); test: Western blot of aggregate-forming proteins in cerebral cortex and hippocampus of Alzheimer's model animals; assay type: in vivo; conditions: 5XFAD mice, 20 mg/kg IP, 25 weeks
Excerpt: Based on the results of Experimental example 7-2 above, the present inventors investigated the expression of pathogenic aggregate-forming proteins such as tau protein, p62, and LC3 in brain tissue other than β-amyloid by Western blot analysis.
Specifically, cortical and hippocampal tissues were obtained from experimental animals sacrificed after experiments, and the tissues were lysed and subjected to Western blot analysis in the same manner as Experimental example 3, using antibodies that specifically bind to phosphorylated tau S214 (P-Tau S214), phosphorylated tau T205 (P-Tau T205), unphosphorylated tau, p62, LC3, and β-amyloid (APP), respectively.

β-amyloid aggregates = test: Thioflavin S and Congo red staining of β-amyloid plaques in brain sections of Alzheimer's model animals; assay type: in vivo; conditions: 5XFAD mice, cortex and hippocampus, 20 mg/kg IP, 25 weeks, vs model animals given PBS alone
Excerpt: To determine whether the peptides according to one embodiment of the present invention could inhibit the accumulation of β-amyloid aggregates in the brain as a pathologic phenomenon of Alzheimer's disease, even under realistic in vivo conditions as shown by the results of Experiments 4 and 5 above, brain tissue sections obtained from experimental animals sacrificed after the peptide administration for 25 weeks were stained with thioflavin S and Congo red that have selective affinity for β-amyloid plaques.
Specifically, for thioflavin S staining, the brain of a dementia model mouse was harvested and freeze-dried in O.C.T compound (Sakura finetec, USA), and brain sections were obtained by coronal sectioning and mounted on glass slides coated with 0.1% poly-L-lysine. The obtained brain sections were washed in 70% ethanol for 1 min, then in 80% ethanol for 1 min again, and stained in 1% thiflavin S solution (MilliporeSigma, USA) for 15 min. […] Finally, the β-amyloid senile spots were observed through fluorescence microscopy.
Congo red staining to identify amyloid was performed as follows. […] The amyloid senile spots were observed under a fluorescence microscope, and the number of stained senile spots and amyloid per brain section was counted and quantified with a statistical program (Graph prism).

[7] = Body weight change in ALS model animals; assay type: in vivo; conditions: G93A-SOD1 mice, 40 mg/kg SC five days per week from age 112 to 200 days
Method: (§2) To determine whether the peptide according to one embodiment of the present invention has therapeutic effects on amyotrophic lateral sclerosis (ALS) in vivo, the present inventors administered the peptide according to one embodiment of the present invention (ZC311) to an amyotrophic lateral sclerosis model animal (G93A-SOD1) at 40 mg/kg by subcutaneous (SC) injection repeatedly five days per week (Monday through Friday) from the age of 112 days to 200 days.
The present inventors measured changes in body weight over time during the behavioral analysis of Experimental example 8-1 above.

[8] = system: amyotrophic lateral sclerosis model animal (G93A-SOD1); test: Survival rate of ALS model animals; assay type: in vivo; conditions: G93A-SOD1 mice, 40 mg/kg SC five days per week from age 112 days; untreated model 162 days
Method: as §2
In contrast, ALS model mice treated with the peptide according to one embodiment of the present invention began to die at a similar time to the control group, but the time to death was delayed (50% survival 183 days).

[9] = system: amyotrophic lateral sclerosis model animal (G93A-SOD1); test: Rotarod test in ALS model animals; assay type: in vivo; conditions: G93A-SOD1 mice, 40 mg/kg SC five days per week from age 112 to 200 days, 15 rpm, 300 seconds
Method: as §2
The animals were then subjected to a rotarod test twice a week at intervals of up to 3-4 days to evaluate their motor function. The rotarod test was performed using a rotarod treadmill (Cat. No. DJ-345, Dae Jong, Seoul, Korea) to evaluate impaired coordination, the main symptom of basal ganglia lesion disease, by measuring the time for the subject animals (n=11, 8, and 10) to fall off the rod during three repetitions of 300 seconds at a constant speed of 15 rpm. 300 seconds was set to be a perfect score, and the highest score was used.

Compound	SOD1 protein aggregates [1]	mutant huntingtin protein aggregates [2]	number and size of LC3 spots [3]	mutant tau protein aggregates [4]	α-synuclein protein aggregates [5]	expression of aggregate-forming proteins in the cerebral cortex [6]	expression of aggregate-forming proteins in the hippocampus [6]	accumulation of β-amyloid aggregates (plaques, thioflavin S and Congo red) (β-amyloid aggregates)	progressive body weight loss over time [7]	50% survival [8] [days]	development of ataxia (rotarod) [9]
CO/C1=C\C(C)=C\[C@@H](C)[C@@H](O)[C@@H](C)C/C(C)=C/C=C/[C@H](OC)[C@@H]([C@@H](C)[C@@H](O)[C@H](C)[C@@]2(O)C[C@@H](O)[C@H](C)[C@@H](C(C)C)O2)OC1=O [bafilomycin, Bafilomycin A-1]	increased	increased	significantly increased	increased	increased	–	–	–	–	–	–
ZC311 ([dH]G[dV][dS]GHGQ[dH]G[dV][dH]G; not fully specified (residues 6, 8))	–	–	–	–	–	significantly lower	significantly lower	significantly inhibited	not altered	183	delayed
